Experiments:
[1] = Sensory evaluation of aqueous solution I containing (E)-2-nonenal 1 ppb: off-flavor intensity and masking component intensity; details: (E)-2-nonenal 1 ppb, average score 0-4
Procedure, shortened: (§1)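 Scores run 0–4 for two attributes: off-flavor intensity, judged against the unmasked spiked solution (4) and degradant-free water (0), and nootkatone's own perceptibility, judged absolutely. A panel of eight experienced tasters evaluated aqueous solutions of the degradation component containing added nootkatone.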

[2] = Sensory evaluation of aqueous solution II containing (E)-2-octenal 10 ppb: off-flavor intensity and masking component intensity; details: (E)-2-octenal 10 ppb, average score 0-4
Procedure, shortened: as §1

[3] = Sensory evaluation of aqueous solution III containing 1-octen-3-one 1 ppb: off-flavor intensity and masking component intensity; details: 1-octen-3-one 1 ppb, average score 0-4
Procedure, shortened: as §1

[4] = Sensory evaluation of aqueous solution IV containing 1,5-octadien-3-one 100 ppt: off-flavor intensity and masking component intensity; details: aqueous solution IV, 1,5-octadien-3-one 100 ppt, average score 0-4
Procedure, shortened: as §1

[5] = Sensory evaluation of aqueous solution V containing 1-octen-3-ol 10 ppb: off-flavor intensity and masking component intensity; details: 1-octen-3-ol 10 ppb, average score 0-4
Procedure, shortened: as §1

[6] = Sensory evaluation of aqueous solution VI containing 1,5-octadien-3-ol 10 ppb: off-flavor intensity and masking component intensity; details: aqueous solution VI, 1,5-octadien-3-ol 10 ppb, average score 0-4
Procedure, shortened: as §1

[7] = Overall conclusion of the sensory evaluation across aqueous solutions I to VI
Procedure, shortened: as §1

CC(=O)/C=C/C1C(C)=CCCC1(C)C (stereo not drawn) [α-Ionone, α-ionone]
Off-Flavor Intensity ([1]; 0.1 ppt added): 3.9 points | Off-Flavor Intensity ([1]; 1 ppb added): 2.3 points | Off-Flavor Intensity ([1]; 1 ppm added): 0.6 points | Off-Flavor Intensity ([1]; 1 ppt added): 3.6 points | Off-Flavor Intensity ([1]; 10 ppb added): 1.8 points | Off-Flavor Intensity ([1]; 10 ppm added): 0.3 points | Off-Flavor Intensity ([1]; 10 ppt added): 3.1 points | Off-Flavor Intensity ([1]; 100 ppb added): 1.3 points | Off-Flavor Intensity ([1]; 100 ppt added): 2.6 points | Off-Flavor Intensity ([2]; 0.1 ppt added): 3.1 points | Off-Flavor Intensity ([2]; 1 ppb added): 1.9 points | Off-Flavor Intensity ([2]; 1 ppm added): 0.1 points | Off-Flavor Intensity ([2]; 1 ppt added): 2.9 points | Off-Flavor Intensity ([2]; 10 ppb added): 1.5 points | Off-Flavor Intensity ([2]; 10 ppm added): 0.0 points | Off-Flavor Intensity ([2]; 10 ppt added): 2.5 points | Off-Flavor Intensity ([2]; 100 ppb added): 0.8 points | Off-Flavor Intensity ([2]; 100 ppt added): 2.4 points | Off-Flavor Intensity ([3]; 0.1 ppt added): 3.6 points | Off-Flavor Intensity ([3]; 1 ppb added): 2.4 points | Off-Flavor Intensity ([3]; 1 ppm added): 0.8 points | Off-Flavor Intensity ([3]; 1 ppt added): 3.4 points | Off-Flavor Intensity ([3]; 10 ppb added): 1.9 points | Off-Flavor Intensity ([3]; 10 ppm added): 0.1 points | Off-Flavor Intensity ([3]; 10 ppt added): 3.0 points | Off-Flavor Intensity ([3]; 100 ppb added): 1.6 points | Off-Flavor Intensity ([3]; 100 ppt added): 2.8 points | Off-Flavor Intensity ([4]; 0.1 ppt added): 3.5 points | Off-Flavor Intensity ([4]; 1 ppb added): 2.4 points | Off-Flavor Intensity ([4]; 1 ppm added): 1.0 points | Off-Flavor Intensity ([4]; 1 ppt added): 3.4 points | Off-Flavor Intensity ([4]; 10 ppb added): 2.1 points | Off-Flavor Intensity ([4]; 10 ppm added): 0.1 points | Off-Flavor Intensity ([4]; 10 ppt added): 3.1 points | Off-Flavor Intensity ([4]; 100 ppb added): 1.6 points | Off-Flavor Intensity ([4]; 100 ppt added): 2.9 points | Off-Flavor Intensity ([5]; 0.1 ppt added): 3.1 points | Off-Flavor Intensity ([5]; 1 ppb added): 1.9 points | Off-Flavor Intensity ([5]; 1 ppm added): 0.5 points | Off-Flavor Intensity ([5]; 1 ppt added): 3.0 points | Off-Flavor Intensity ([5]; 10 ppb added): 1.5 points | Off-Flavor Intensity ([5]; 10 ppm added): 0.0 points | Off-Flavor Intensity ([5]; 10 ppt added): 2.5 points | Off-Flavor Intensity ([5]; 100 ppb added): 1.0 points | Off-Flavor Intensity ([5]; 100 ppt added): 2.3 points | Off-Flavor Intensity ([6]; 0.1 ppt added): 3.1 points | Off-Flavor Intensity ([6]; 1 ppb added): 1.8 points | Off-Flavor Intensity ([6]; 1 ppm added): 0.1 points | Off-Flavor Intensity ([6]; 1 ppt added): 2.9 points | Off-Flavor Intensity ([6]; 10 ppb added): 1.5 points | Off-Flavor Intensity ([6]; 10 ppm added): 0.0 points | Off-Flavor Intensity ([6]; 10 ppt added): 2.5 points | Off-Flavor Intensity ([6]; 100 ppb added): 0.8 points | Off-Flavor Intensity ([6]; 100 ppt added): 2.0 points | concentration that masks the off-flavor and does not affect the flavor of the food and/or beverage itself, lower limit [7]: ≥ 1 ppt | concentration that masks the off-flavor and does not affect the flavor of the food and/or beverage itself, upper limit [7]: ≤ 100 ppb

— patent US20250176599A1, “FLAVOR COMPOSITION AND FOOD AND BEVERAGE” (TAKASAGO INTERNATIONAL CORPORATION, priority 2021, published 2025)
